Measured values reported in patent US20240132480A1, “INHIBITORS OF MYCOBACTERIUM TUBERCULOSIS LIPOAMIDE DEHYDROGENASE” (Cornell University, priority 2021, published 2024).
Read-outs that look alike come from different tables or passages of the source.

How the values were obtained:
Mtb Lpd = Mtb Lpd (Mycobacterium tuberculosis (strain ATCC 25618 / H37Rv), UniProt P9WHH9); type: biochemical
[1] = Microsomal clearance (hLM); details: human liver microsomes
[2] = microsomes
[3] = 30 min preincubation, read-out: LPD IC50 (μM) w/ 30 min preincubation

Row | Structure (SMILES) | IC50 (Mtb Lpd; read-out: LPD IC50) [µM] | Human Liver Microsome Stability [1] [µL/min/mg] | IC50 (Mtb Lpd; [3]) [µM] | Human Liver Microsome Stability [2] [µL/min/mg]
1 | Cc1cc(S(=O)(=O)N2CCC[C@H]2C(=O)Nc2ccc(N3CCOCC3)c(Cl)c2)c2[nH]ncc2c1 [Example 5] | 0.042 | 133 | – | –
2 | COc1ccc(NC(=O)CN(C)S(=O)(=O)c2cc(C)cc3cn[nH]c23)cc1Cl [Example 1, N-(3-chloro-4-methoxyphenyl)-2-((N,5-dimethyl-1H-indazole)-7-sulfonamido)acetamide] | – | >768 | – | –
3 | Cc1cc(S(=O)(=O)N(C)CC(=O)Nc2cc(=O)n3c(n2)CCCC3)c2[nH]c(C#N)cc2c1 [Example 224, 2-((2-cyano-N,5-dimethyl-1H-indole)-7-sulfonamido)-N-(4-oxo-6,7,8,9-tetrahydro-4H-pyrido[1,2-a]pyrimidin-2-yl)acetamide] | – | – | 0.022 | 61
4 | Cc1cc(S(=O)(=O)N(C)CC(=O)Nc2ccc3c(c2)OC(C)(C)CN3C)c2n[nH]cc2c1 [Example 158] | 0.022 | – | – | 46
5 | CCc1ccc(NC(=O)CN(C)S(=O)(=O)c2cc(C)cc3cc(C#N)[nH]c23)cc1Cl [Example 212] | – | – | 0.035 | 210
6 | Cc1cc(S(=O)(=O)N2CC[C@@H](C(=O)Nc3ccc4c(c3)OCCN4C3CCOCC3)C2)c2n[nH]cc2c1 [Example 122] | 0.0304 | – | – | 26
7 | COc1cc(NC(=O)CN(C)S(=O)(=O)c2cc(C)cc3cc(C#N)[nH]c23)ccn1 [Example 214, 2-((2-cyano-N,5-dimethyl-1H-indole)-7-sulfonamido)-N-(2-methoxypyridin-4-yl)acetamide] | – | – | 0.021 | 91
8 | Cc1cc(S(=O)(=O)N2CC[C@H]2C(=O)Nc2ccc3c(c2)OCCN3C)c2[nH]ncc2c1 [Example 40] | 0.03 | – | – | 78
9 | Cn1ccc(NC(=O)[C@@H]2CCN2S(=O)(=O)c2cc(Br)cc3c(F)n[nH]c23)cc1=O [Example 151, (S)-1-((5-bromo-3-fluoro-1H-indazol-7-yl)sulfonyl)-N-(1-methyl-2-oxo-1,2-dihydropyridin-4-yl)azetidine-2-carboxamide] | 0.18 | – | – | -4
10 | COc1ccc(NC(=O)[C@@H]2CCCN2S(=O)(=O)c2cc(C)cc3cn[nH]c23)cc1Cl [Example 4, (S)—N-(3-chloro-4-methoxyphenyl)-1-((5-methyl-1H-indazol-7-yl)sulfonyl)pyrrolidine-2-carboxamide] | 0.39 | 324 | – | –
11 | Cc1cc(S(=O)(=O)N2CC[C@H]2C(=O)Nc2ccc(OCCN(C)C)c(Cl)c2)c2[nH]ncc2c1 [Example 168] | 0.143 | – | – | 1
12 | COCc1n[nH]c2c(S(=O)(=O)N(C)CC(=O)Nc3ccc(OC)c(C)c3)cc(C)cc12 [Example 28] | 3640 | – | – | >768
13 | Cc1cc(S(=O)(=O)N(C)CC(=O)Nc2ccn(C3CC3)c(=O)c2)c2[nH]ncc2c1 [Example 98] | 0.093 | – | – | 28
14 | Cc1cc(S(=O)(=O)N(C)CC(=O)Nc2ccn3ccnc3c2)c2[nH]ncc2c1 [Example 26] | 0.0628 | – | – | 154
15 | CN(CC(=O)Nc1ccc2c(c1)OCCN2C1CCOCC1)S(=O)(=O)c1cc(Cl)cc2cn[nH]c12 [Example 166] | 0.034 | – | – | 122
16 | COc1ccc(NC(=O)[C@@H]2CCN2S(=O)(=O)c2cc(C)cc3cn[nH]c23)cc1Cl [Example 74] | 0.0488 | – | – | 325
17 | CNCc1n[nH]c2c(S(=O)(=O)N(C)CC(=O)Cc3ccn(C)c(=O)c3)cc(C)cc12 [Example 44] | 0.13 | – | – | -2
18 | Cc1cc(S(=O)(=O)N(C)CC(=O)Nc2ccc(N3CCOCC3)c(C)c2)c2[nH]ncc2c1 [Example 32] | 0.0043 | – | – | 234
19 | Cc1cc(S(=O)(=O)N(C)CC(=O)Nc2ccn3cnnc3c2)c2n[nH]cc2c1 [Example 102] | 0.042 | – | – | 31
20 | Cc1cc(S(=O)(=O)N2CC[C@H]2C(=O)Nc2ccc3c(c2)OCCO3)c2[nH]ncc2c1 [Example 39] | 0.0237 | – | – | 76
21 | Cc1cc(S(=O)(=O)N2CC[C@H]2C(=O)Nc2ccc3cccnc3c2)c2[nH]ncc2c1 [Example 106] | 0.019 | – | – | 236
22 | Cc1cc(S(=O)(=O)N2CC[C@H]2C(=O)Nc2ccc(N3CCN(C)CC3)c(Cl)c2)c2[nH]ncc2c1 [Example 153, (S)—N-(3-chloro-4-(4-methylpiperazin-1-yl)phenyl)-1-((5-methyl-1H-indazol-7-yl)sulfonyl)azetidine-2-carboxamide] | 0.048 | – | – | 113
